{"source": "patent US11136320B2", "about": "“Fused ring derivative used as FGFR4 inhibitor” (JACOBIO PHARMACEUTICALS CO., LTD., priority 2019, dated 2021)", "key": {"[1]": {"tested_on": "Hepatoma cell Hep3B (high expression of FGFR4 and FGF19)", "test": "Hepatoma cell proliferation inhibition experiment (MTS method)", "type": "cell-based"}, "[2]": {"test": "PK analysis of rats", "type": "in vivo", "conditions": "SD rats, p.o. (10 mg/kg)"}, "[3]": {"test": "PK/PD of NOD-SCID mouse (drug concentration in blood and in tumors)", "type": "in vivo", "conditions": "for AUC(0-inf) / Cmax / Tmax / half-life / AUC(0-t) / concentration at 4 h / concentration at 6 h: NOD-SCID, mouse, po, 50 mg/kg, p.o. (50 mg/kg); for AUC(0-inf) / Cmax / Tmax / half-life / AUC(0-t): plasma; for AUC(0-t): read-out: AUC0-6 h; for concentration at 4 h / concentration at 6 h: tumor", "procedure": "This experiment conducted when the pharmacological experiment in vivo was performed by gavage administration, wherein, the blood samples and tumor samples were taken at different time points to detect drug concentration in blood and drug concentrations in tumors.\n(1) Mode of administration: gavage administration;\n(2) Dosage: 50 mg/kg in the gavage administration;\nThree mice were sampled at each sampling point;\n(4) Blood sample collection: 200 μL of orbital blood was collected at sampling time point for each blood sample. After anticoagulation with heparin, the blood was centrifuged at 5500 rpm for 10 mins. 60 μL of the supernatant was taken and put it into the refrigerator at −80° C. for waiting for testing.\nTumour sample collection: 200-300 mg of each tumor tissue was taken. The tumor weight was marked, quickly freezed in liquid nitrogen and placed into a refrigerator at −80° C. for waiting for testing.\nTumour sample processing: pure water was added into the tumor sample according to a ratio of […] between the weight of the tumor sample and the volume of pure water and then it was homogenized. The homogenate was stored at −90° C. to −60° C. until the sample was analyzed. After 5 μL of acetonitrile/water (v/v=1:1) was added into 50 μL of tumor sample homogenate, 200 μL of acetonitrile (containing Dexamethasone 100 ng/ml as internal standard, or containing Verapamil 2 ng/ml as internal standard) was added. After protein precipitation, the resulting mixture was vortexed for 2 mins at 4° C. with 4600 g, and then centrifuged for 15 mins to obtain the supernatant. 100 μL of the supernatant was taken and added into 200 μL of deionized water. 5500 LC/MS/MS analyser was used for sample injection and analysis, after vortexing for homogeneity. The conditions for chromatographic separation and mass spectrometric analysis were as follows: […]"}, "[4]": {"target": "T1, FGFR4 kinase (Homo sapiens (Human), UniProt P22455)", "T1 sequence (P22455 22-802)": "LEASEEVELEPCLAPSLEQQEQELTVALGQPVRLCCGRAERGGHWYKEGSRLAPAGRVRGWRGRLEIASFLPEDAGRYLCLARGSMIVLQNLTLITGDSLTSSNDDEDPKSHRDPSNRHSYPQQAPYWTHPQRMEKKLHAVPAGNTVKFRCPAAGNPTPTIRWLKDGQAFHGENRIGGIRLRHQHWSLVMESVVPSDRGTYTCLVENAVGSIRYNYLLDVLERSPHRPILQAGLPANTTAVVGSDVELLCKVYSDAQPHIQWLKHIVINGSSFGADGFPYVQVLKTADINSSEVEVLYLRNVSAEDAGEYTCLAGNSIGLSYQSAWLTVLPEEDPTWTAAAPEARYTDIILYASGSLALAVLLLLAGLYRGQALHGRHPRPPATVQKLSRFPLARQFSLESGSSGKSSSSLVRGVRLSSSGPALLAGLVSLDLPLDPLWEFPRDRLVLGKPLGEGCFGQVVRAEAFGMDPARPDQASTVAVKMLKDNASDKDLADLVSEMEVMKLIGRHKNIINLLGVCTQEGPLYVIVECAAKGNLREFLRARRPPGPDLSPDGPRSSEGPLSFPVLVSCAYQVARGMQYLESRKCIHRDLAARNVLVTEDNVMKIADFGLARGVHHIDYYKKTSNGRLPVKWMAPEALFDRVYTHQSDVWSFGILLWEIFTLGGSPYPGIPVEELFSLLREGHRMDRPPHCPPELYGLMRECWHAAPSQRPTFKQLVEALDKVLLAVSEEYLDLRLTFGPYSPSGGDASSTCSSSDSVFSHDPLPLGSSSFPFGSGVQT"}, "[5]": {"target": "T1, FGFR4 kinase", "test": "biochemical"}}, "data": [{"smiles": "CSC[C@@H](C)Nc1cc(NC(=O)N2CCCc3cc(CN4CCN(C)CC4=O)c(C=O)nc32)ncc1C#N", "note": "[Compound 4, (R)—N-(5-Cyano-4-((1-(methylthio)propan-2-yl)amino)pyridin-2-yl)-7-formyl-6-((4-methyl-2-oxopiperazin-1-yl)methyl)-3,4-dihydro-1,8-naphthyridine-1 (2H)-carboxamide]", "values": [{"measurement": "inhibitory effect on Hepatoma cell Hep3B compared with the reference compound", "setting": "[1]", "result": "better inhibitory effect"}, {"measurement": "IC50", "setting": "[1]; Homo sapiens, Hep3B, 120 h incubation, read-out: Hep3B(IC50 μM)", "result": 0.014, "unit": "µM"}, {"measurement": "exposure amount AUC0-24 h and maximum drug concentration in blood Cmax compared with the reference compound", "setting": "[2]", "result": "significantly higher than the reference compound"}, {"measurement": "AUC(0-t)", "setting": "[2]; rat, plasma, po, read-out: Curve area AUC0-24 h", "result": 4670, "unit": "ng·h/mL"}, {"measurement": "Cmax", "setting": "[2]; rat, plasma, po, read-out: Drug concentration in blood Cmax", "result": 1450, "unit": "ng/mL"}, {"measurement": "content in tumor tissue relative to the reference compound", "setting": "[3]; Hep3B model, 4 h or 6 h", "result": "more than 15 times"}, {"measurement": "AUC(0-inf)", "setting": "[3]; Hep3B model", "result": 3360, "unit": "ng·h/mL"}, {"measurement": "Cmax", "setting": "[3]; Hep3B model", "result": 1020, "unit": "ng/mL"}, {"measurement": "Tmax", "setting": "[3]; Hep3B model", "result": 2, "unit": "h"}, {"measurement": "half-life", "setting": "[3]; Hep3B model", "result": 1.48, "unit": "h"}, {"measurement": "AUC(0-t)", "setting": "[3]; Hep3B model", "result": 3020, "unit": "ng·h/mL"}, {"measurement": "AUC(0-inf)", "setting": "[3]; SNU878 model", "result": 4260, "unit": "ng·h/mL"}, {"measurement": "Cmax", "setting": "[3]; SNU878 model", "result": 1230, "unit": "ng/mL"}, {"measurement": "Tmax", "setting": "[3]; SNU878 model", "result": 1, "unit": "h"}, {"measurement": "half-life", "setting": "[3]; SNU878 model", "result": 2.3, "unit": "h"}, {"measurement": "AUC(0-t)", "setting": "[3]; SNU878 model", "result": 3530, "unit": "ng·h/mL"}, {"measurement": "concentration at 4 h", "setting": "[3]; Hep3B model", "result": 1210, "unit": "ng/g"}, {"measurement": "concentration at 6 h", "setting": "[3]; Hep3B model, 6 h", "result": 673, "unit": "ng/g"}, {"measurement": "concentration at 4 h", "setting": "[3]; SNU878 model", "result": 2340, "unit": "ng/g"}, {"measurement": "concentration at 6 h", "setting": "[3]; SNU878 model, 6 h", "result": 1950, "unit": "ng/g"}, {"measurement": "content in tumor tissue relative to the reference compound", "setting": "[3]; SNU878 model, 6 h", "result": "about twice"}, {"measurement": "inhibitory effect on FGFR4 compared with the reference compound", "setting": "[4]", "result": "better inhibitory effect on FGFR4 than the reference compound"}, {"measurement": "IC50", "setting": "[5]", "result": 1.4, "unit": "nM"}]}]}
